# From publication PMC10647736, “Aza Analogs of the TRPML1 Inhibitor Estradiol Methyl Ether (EDME)” (Molecules, 2023)
# Entries after “also recorded” stand apart in the source; their conditions may differ. Like-named read-outs stand apart in the source and are kept apart here.
# Tests used:
# [1] = biological target: T1, hTRPML1ΔNC-YFP, a plasma membrane variant of wild-type TRPML1 (Homo sapiens, UniProt Q9GZU1); design: method as in PMID 33859333; settings: previous work, cited from earlier work; for IC50: hTRPML1ΔNC-YFP, read-out: IC50 TRPML1 inhibition
# [2] = biological target: T1, hTRPML1ΔNC-YFP, a plasma membrane variant of wild-type TRPML1; assay: TRPML1 inhibition, fluorimetric Ca2+ influx assay (Fluo-4/AM) on HEK293 cells stably expressing plasma membrane-targeted TRPML1; assay type: cell-based; settings: for IC50 / TRPML1-inhibitory activity (in words): hTRPML1ΔNC-YFP; for IC50: HEK293 cells, Ca2+ influx, Fluo-4/AM; for TRPML1-inhibitory activity (in words): Ca2+ influx assay
# Text: The two target compounds, pyridine analog 1 and pyrimidine analog 2, as well as the inadvertently obtained pyridone analog 6 were submitted to our previously described test for inhibition of TRPML1 on hTRPML1ΔNC-YFP, a plasma membrane variant of wild-type TRPML1 by means of a fluorimetric Ca^2+ influx assay.
# hTRPML1ΔNC-YFP, a plasma membrane variant of wild-type TRPML1, was obtained from HEK293 cells stably expressing plasma membrane-targeted TRPML1 by trypsination and after resuspending in HEPES buffered solution. IC50 values for TRPML1 inhibition were determined on a fluorescence imaging plate reader built into a robotic liquid handling station (Freedom Evo 150, Tecan, Mannedorf, Switzerland) using the calcium dye Fluo-4/AM (Invitrogen, Thermo Fisher Scientific, Waltham, MA, USA) according to the test procedure described in our previous work in the section Compound screening and generation of concentration–response curves.
# [3] = design: method as in PMID 33859333; settings: compared to EDME; cited from earlier work
# T1 sequence (Q9GZU1 whole entry, stated change not applied): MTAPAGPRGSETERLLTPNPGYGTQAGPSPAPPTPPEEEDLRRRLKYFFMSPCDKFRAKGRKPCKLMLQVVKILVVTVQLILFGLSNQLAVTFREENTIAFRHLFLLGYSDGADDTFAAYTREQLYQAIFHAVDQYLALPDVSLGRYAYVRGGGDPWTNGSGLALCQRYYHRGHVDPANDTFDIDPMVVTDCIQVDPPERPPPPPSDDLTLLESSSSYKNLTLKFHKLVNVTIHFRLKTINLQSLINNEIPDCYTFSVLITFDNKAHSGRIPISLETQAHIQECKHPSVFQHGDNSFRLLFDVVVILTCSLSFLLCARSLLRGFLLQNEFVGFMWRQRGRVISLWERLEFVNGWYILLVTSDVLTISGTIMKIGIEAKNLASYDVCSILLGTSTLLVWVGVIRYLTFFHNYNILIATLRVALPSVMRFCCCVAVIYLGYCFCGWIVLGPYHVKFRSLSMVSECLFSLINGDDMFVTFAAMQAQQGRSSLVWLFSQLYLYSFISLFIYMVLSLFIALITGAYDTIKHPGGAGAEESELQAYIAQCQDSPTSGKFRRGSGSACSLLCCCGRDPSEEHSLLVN
Structure (SMILES),IC50 [1],IC50 [2],also measured
C[C@]12CC[C@@H]3c4ccc(O)cc4CC[C@H]3[C@@H]1CC[C@@H]2O [17β-estradiol],5300 nM,,
"COc1ccc2c(n1)CC[C@@H]1[C@@H]2CC[C@]2(C)[C@@H](O)CC[C@@H]12 [Compound 1, (4bS,6aS,7S,9aS,9bR)-2-Methoxy-6a-methyl-4b,6,6a,7,8,9,9a,9b,10,11-decahydro-5H-indeno[5,4-f]quinolin-7-ol]",,1000 nM,"TRPML1-inhibitory activity, factor less potent than EDME ([2]; compared to EDME): < 2; melting point: 157 °C"
"COc1ncc2c(n1)CC[C@@H]1[C@@H]2CC[C@]2(C)[C@@H](O)CC[C@@H]12 [Compound 2, (4bS,6aS,7S,9aS,9bR)-2-Methoxy-6a-methyl-4b,6,6a,7,8,9,9a,9b,10,11-decahydro-5H-indeno[5,4-f]quinazolin-7-ol]",,8800 nM,TRPML1-inhibitory activity (in words) [2]: only a very weak inhibitor; also recorded: significantly lost inhibitory potency
"C[C@]12CC[C@@H]3c4ccc(=O)[nH]c4CC[C@H]3[C@@H]1CC[C@@H]2O [Compound 6, (4bS,6aS,7S,9aS,9bR)-7-hydroxy-6a-methyl-1,4b,5,6,6a,7,8,9,9a,9b,10,11-dodecahydro-2H-indeno[5,4-f]quinolin-2-one]",,40000 nM,TRPML1-inhibitory activity (in words) [2]: virtually inactive; TRPML1-inhibitory activity (in words) ([2]; listed as pyridone analog): completely inactive
"COc1ccc2c(c1)CC[C@@H]1[C@@H]2CC[C@]2(C)[C@@H](O)CC[C@@H]12 [EDME, estradiol methyl ether]",600 nM,600 nM,
C=Cc1ccc2c(c1)CC[C@@H]1[C@@H]2CC[C@]2(C)[C@@H](O)CC[C@@H]12 [PRU-10],410 nM,,estrogenic activity (in words) [3]: reduced estrogenic activity
CC(=O)c1ccc2c(c1)CC[C@@H]1[C@@H]2CC[C@]2(C)[C@@H](O)CC[C@@H]12 [PRU-12],280 nM,,estrogenic activity (in words) [3]: reduced estrogenic activity
C#C[C@]1(O)CC[C@H]2[C@@H]3CCc4cc(OC)ccc4[C@H]3CC[C@@]21C [mestranol],,,TRPML1 inhibition (in words) [1]: considerable activity
